# Assay results from patent US10662138B2, “Herbicidal propynyl-phenyl compounds” (Syngenta Participations AG, priority 2014, dated 2020).
# Key:
# Type in all cases: in vivo
# [1] = system: Alopecurus myosuroides; assay: Glasshouse assay for herbicidal activity, post-emergence, ALOMY; details: Alopecurus myosuroides, 312 h, visual 13 days after application, 100%=total damage, read-out: Percentage phytotoxicity ALOMY
# Method: (§1) Seeds of a variety of test plant species were sown in standard soil ** in pots. After cultivation for one day (pre-emergence) or after 8 days cultivation (post-emergence) under controlled conditions in a glasshouse (at 24/16° C., day/night; 14 hours light; 65% humidity), the plants were sprayed with an aqueous spray solution derived from the formulation of the technical active ingredient (the test herbicide) in acetone/water (50:50) solution containing 0.5% Tween 20 (polyoxyethylene sorbitan monolaurate, CAS Reg. No. 9005-64-5). The test plants were then grown on under controlled conditions in a glasshouse (at 24/16° C., day/night; 14 hours light; 65% humidity) and watered twice daily. 13 Days after application of the test herbicide, for pre- and post-emergence, the test was evaluated visually for percentage phytotoxicity to each plant (where 100%=total damage to plant; 0%=no damage to plant). Generally, each test herbicide is only tested on 1 plant per plant species for each application rate tested and for each application timing. The “standard soil” in Biological Example 1 is usually a “sand” or “sandy loam” type of soil. Biological Example 1—Post-Emergence Application—Herbicidal Activity Results (Percentage Phytotoxicity) Dicotyledonous weeds: ABUTH=Abutilon theophrasti; AMARE=Amaranthus retroflexus. Grassy monocotyledonous weeds: SETFA=Setaria faberi; ALOMY=Alopecurus myosuroides; ECHCG=Echinochloa crus-galli; ZEAMX=Zea mays (corn, maize, e.g. volunteer corn).
# [2] = system: Abutilon theophrasti; assay: Glasshouse assay for herbicidal activity, post-emergence, ABUTH; details: Abutilon theophrasti, 312 h, visual 13 days after application, 100%=total damage, read-out: Percentage phytotoxicity ABUTH
# Method: as §1
# [3] = system: Setaria faberi; assay: Glasshouse assay for herbicidal activity, post-emergence, SETFA; details: Setaria faberi, 312 h, visual 13 days after application, 100%=total damage, read-out: Percentage phytotoxicity SETFA
# Method: as §1
# [4] = system: Zea mays (corn, maize, e.g. volunteer corn); assay: Glasshouse assay for herbicidal activity, post-emergence, ZEAMX; details: Zea mays, 312 h, visual 13 days after application, 100%=total damage, read-out: Percentage phytotoxicity ZEAMX
# Method: as §1
# [5] = system: Amaranthus retroflexus; assay: Glasshouse assay for herbicidal activity, post-emergence, AMARE; details: Amaranthus retroflexus, 312 h, visual 13 days after application, 100%=total damage, read-out: Percentage phytotoxicity AMARE
# Method: as §1
# [6] = system: Echinochloa crus-galli; assay: Glasshouse assay for herbicidal activity, post-emergence, ECHCG; details: Echinochloa crus-galli, 312 h, visual 13 days after application, 100%=total damage, read-out: Percentage phytotoxicity ECHCG
# Method: as §1
SMILES,pest or weed control at 250 g/ha [1] [%],pest or weed control at 250 g/ha [2] [%],pest or weed control at 250 g/ha [3] [%],pest or weed control at 250 g/ha [4] [%],pest or weed control at 250 g/ha [5] [%],pest or weed control at 250 g/ha [6] [%],pest or weed control at 30 g/ha [2] [%],pest or weed control at 30 g/ha [3] [%],pest or weed control at 30 g/ha [4] [%],pest or weed control at 30 g/ha [5] [%],pest or weed control at 30 g/ha [6] [%],pest or weed control at 30 g/ha [1] [%]
CC#Cc1ccc(C2C(=O)C3CCC(C3)C2=O)c(OC(F)(F)F)c1 (centres unmarked) [Compound A8],100,80,100,100,10,100,,,,,,
CC#Cc1ccc(C2=C(OS(=O)(=O)CC)C3CCC(C3)C2=O)c(OC)c1 (centres unmarked) [Compound P17],90,70,80,100,0,90,,,,,,
CC#Cc1ccc(C2=C(OC(=O)SC(C)C)C3CCC(C3)C2=O)c(OC)c1 (centres unmarked) [Compound P15],90,70,100,100,10,100,,,,,,
CC#Cc1ccc(C2=C(OC(=O)c3ccc(F)cc3)C3CCC(C3)C2=O)c(OC)c1 (centres unmarked) [Compound P5],90,50,90,100,30,100,,,,,,
CC#Cc1ccc(C2C(=O)C3CCC(C3)C2=O)c(OCC)c1 (centres unmarked) [Compound A14],,0,90,90,0,100,0,50,70,0,70,
"CC#Cc1cc(OC)c(C2C(=O)CCCC2=O)c(OC)c1 [Compound A11, 2-(2,6-dimethoxy-4-prop-1-ynyl-phenyl)cyclohexane-1,3-dione]",90,0,100,100,30,100,0,100,100,10,100,70
CC#Cc1ccc(C2=C(OCOC)C3CCC(C3)C2=O)c(OC)c1 (centres unmarked) [Compound P4],100,10,100,100,0,100,,,,,,
CC#Cc1ccc(C2C(=O)CC(CCSC)CC2=O)c(OC)c1 (centres unmarked) [Compound A9],90,40,90,100,20,90,20,80,90,0,80,30
CC#Cc1ccc(C2C(=O)C3CCC(C3)C2=O)c(CC)c1 (centres unmarked) [Compound A17],100,50,90,100,0,100,,,,,,
CC#Cc1ccc(C2C(=O)C3CCC(C3)C2=O)c(OCCC)c1 (centres unmarked) [Compound A6],,0,50,80,0,70,0,10,40,0,40,
